Measurements: patent US20210122763A1, “OGA INHIBITOR COMPOUNDS” (Janssen Pharmaceutica NV, priority 2018, published 2021)
Counter-ions that a name gives are not always drawn.

Key:
OGA = molecular target: T1, OGA (Homo sapiens, UniProt O60502); assay: OGA cellular assay (ICC detection of O-GlcNAcylated proteins in HEK293 cells inducible for P301L mutant human Tau); type: cell-based; settings: 6 hours incubation; for Emax: HEK293, HEK293 cells inducible for P301L mutant human Tau; for EC50: read-out: Cellular hOGA, pEC50 (converted)
T1 construct: HEK293 cells inducible for P301L mutant human Tau (isoform 2N4R) were established at Janssen; endogenous in cells; host or cells: HEK293 cells inducible for P301L mutant human Tau (2N4R)
T1 sequence (O60502 1-916): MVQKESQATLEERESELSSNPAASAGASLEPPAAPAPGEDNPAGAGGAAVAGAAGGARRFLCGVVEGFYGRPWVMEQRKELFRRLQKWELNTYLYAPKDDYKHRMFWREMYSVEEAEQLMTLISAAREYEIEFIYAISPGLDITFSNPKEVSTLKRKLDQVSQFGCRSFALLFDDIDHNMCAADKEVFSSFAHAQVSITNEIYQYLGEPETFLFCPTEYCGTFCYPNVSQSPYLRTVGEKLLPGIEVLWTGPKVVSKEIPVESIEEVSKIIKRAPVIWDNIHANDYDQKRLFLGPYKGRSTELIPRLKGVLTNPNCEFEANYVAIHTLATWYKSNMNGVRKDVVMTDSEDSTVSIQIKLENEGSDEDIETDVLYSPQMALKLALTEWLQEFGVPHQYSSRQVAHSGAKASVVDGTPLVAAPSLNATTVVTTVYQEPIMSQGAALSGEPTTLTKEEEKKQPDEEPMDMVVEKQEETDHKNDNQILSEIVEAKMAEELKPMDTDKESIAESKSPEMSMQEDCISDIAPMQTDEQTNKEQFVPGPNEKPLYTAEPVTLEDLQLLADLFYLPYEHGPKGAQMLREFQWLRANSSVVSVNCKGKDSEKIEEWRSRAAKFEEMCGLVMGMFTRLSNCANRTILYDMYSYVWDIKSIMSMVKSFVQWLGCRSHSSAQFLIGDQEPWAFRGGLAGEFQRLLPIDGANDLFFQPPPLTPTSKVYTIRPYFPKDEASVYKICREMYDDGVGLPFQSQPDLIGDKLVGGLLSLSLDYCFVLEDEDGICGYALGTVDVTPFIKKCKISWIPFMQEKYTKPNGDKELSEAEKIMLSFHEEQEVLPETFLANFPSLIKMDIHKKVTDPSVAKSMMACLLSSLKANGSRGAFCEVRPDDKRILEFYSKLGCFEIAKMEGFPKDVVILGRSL
Procedure, shortened: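 HEK293 cells with inducible P301L 2N4R Tau, seeded in low-glucose medium, were exposed to compounds for 6 hours (0.2% DMSO), then PFA-fixed and stained with CTD110.6. Imaging intensity at 488 nm measured O-GlcNAcylation, with Hoechst nuclei counts for toxicity. IC50s came from non-linear regression, with Thiamet G at 200 uM as maximum inhibition.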

[1] = molecular target: T2, recombinant human Meningioma Expressed Antigen 5 (MGEA5), also referred to as O-GlcNAcase (OGA) (Homo sapiens, UniProt O60502); assay: OGA biochemical assay (inhibition of FM-GlcNAc hydrolysis, fluorescence); settings: for Emax: read-out: Enzymatic Emax (%); for IC50: read-out: Enzymatic hOGA, pIC50 (converted)
T2 construct: Full length OGA enzyme was purchased at OriGene (cat #TP322411); purchased OriGene TP322411
T2 sequence (O60502 1-916): T1 sequence (O60502 1-916)
Procedure, shortened: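 Full-length OGA at 2 nM was pre-incubated 60 min at room temperature with compound, then FM-GlcNAc at 100 uM final was added in citrate/phosphate buffer pH 7.2 with 0.005% Tween-20. After 6 h at room temperature, carbonate pH 11.0 stopped the reaction. Fluorescence read at 485/538 nm; IC50 and Hill coefficient from curve fit against no-inhibitor and saturating-standard controls.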

[2] = HEK293 cells inducible for P301L mutant human Tau

Row | Compound | Emax (OGA; maximum = Thiamet G 200 uM) [%] | EC50 (OGA; [2]) [nM] | melting point [°C] | Emax [1] [%] | IC50 [1] [nM] | Cellular Emax (%) (OGA; HEK293 cells inducible for P301L mutant human Tau, maximum = Thiamet G 200 uM) | Enzymatic Emax (%) [1] [%]
1 | Cc1ncc(OC2CCN(C(C)c3nc4c(cc3F)OCCO4)CC2)cn1.Cl (stereo not drawn) [Compound 91] | 86 | 200 | 134.6 | 105 | 15.8 | – | –
2 | Cc1ncc(COC2CCN(C(C)c3nc4c(cc3F)OCCO4)CC2)cn1 (single isomer, unassigned) [Compound 136] | 81 | 50.1 | 64.4 | 95 | 12.6 | – | –
3 | Cc1cc(OC2CCN([C@H](C)c3nc4c(cc3F)OCCO4)CC2)cc(C)n1 (single isomer, unassigned) (as salt: HCl) [Compound 148] | – | – | 255.75 | – | – | – | –
4 | Cc1ccc(NC2CCN(C(C)c3nc4c(cc3F)OCCO4)CC2)cn1 (stereo not drawn) [Compound 126] | 73 | 63.1 | 138 | 99 | 25.1 | – | –
5 | CNC(=O)c1ccc(OC2CCN(C(C)c3ccc4c(n3)OCCO4)CC2)cn1 (stereo not drawn) [Compound 122] | 48 | 794 | 94.5 | 100 | 79.4 | – | –
6 | Cc1ncc(COC2CCN(C(C)c3nc4c(cc3F)OCCO4)CC2)cn1 (stereo not drawn) [Compound 135] | 97 | 79.4 | 132.9 | 97 | 31.6 | – | –
7 | Cc1cc(OC2(CF)CCN(C(C)c3ccc4c(n3)OCCO4)CC2)cc(C)n1 (stereo not drawn) (as salt: HCl) [Compound 132] | – | – | 189.8 | – | – | – | –
8 | Cc1ncc(NC2CCN(C(C)c3nc4c(cc3F)OCCO4)CC2)cn1 (stereo not drawn) [Compound 127] | 81 | 135 | 209.9 | 98 | 20 | – | –
9 | Cc1ccc(OC2CCN(C(C)c3nc4c(cc3F)OCCO4)CC2)nc1C (stereo not drawn) [Compound 156] | 67 | 200 | 140.6 | 102 | 20 | – | –
10 | CCc1cc(OC2CCN(C(C)c3ccc4c(n3)OCCO4)CC2)cc(C)n1 (stereo not drawn) (as salt: HCl) [Compound 129] | – | – | 66 | – | – | – | –
11 | Cc1cc(OC2CCN(C(C)c3ccc4c(n3)OCCO4)CC2)cc(OC(C)C)n1 (stereo not drawn) (as salt: HCl) [Compound 124] | – | – | 196.6 | – | – | – | –
12 | Cc1cc(OC2CCN([C@@H](C)c3nc4c(cc3F)CCO4)CC2)cc(C)n1 (single isomer, unassigned) (as salt: HCl) [Compound 145] | – | – | 103.27 | – | – | – | –
13 | Cc1cc(OC2CCN(C(C)c3ccc4c(n3)OCCO4)CC2)cc(C(F)F)n1 (stereo not drawn) [Compound 64] | 61 | 316 | – | 94 | 31.6 | – | –
14 | Cc1cc(OC2CCN(C(C)c3ccc4c(n3)OCC4)CC2)cc(C)n1 (stereo not drawn) [Compound 60] | 84 | 117 | – | 95 | 39.8 | – | –
15 | CC(c1nc2c(cc1F)OCCO2)N1CCC(Oc2ccc(C(F)(F)F)cn2)CC1 (stereo not drawn) [Compound 158] | 77 | 251 | – | 99 | 15.8 | – | –
16 | Cc1cc(OC2CCN(C(C)c3nc4c(cc3F)CCO4)CC2)cc(C)n1 (stereo not drawn) [Compound 6] | 87 | 17.4 | – | 101 | 3.98 | – | –
17 | CC(c1ccc2c(n1)OCCO2)N1CCC(Oc2ncccc2C#N)CC1 (stereo not drawn) [Compound 50] | 9 | > 1000 | – | 95 | 1000 | – | –
18 | CC(c1nc2c(cc1F)OCCO2)N1CCC(Oc2ccc(C(F)(F)F)nn2)CC1 (stereo not drawn) [Compound 39] | 73 | 316 | – | 101 | 20 | – | –
19 | COc1cc(OC2CCN(C(C)c3ccc4c(n3)OCCO4)CC2)ncc1C#N (stereo not drawn) [Compound 103] | 52 | – | – | 97 | 79.4 | – | –
20 | Cc1cc(OC2CCN([C@H](C)c3ccc4c(n3)OCC4)CC2)cc(C)n1 (single isomer, unassigned) [Compound 61] | 87 | 79.4 | – | 95 | 15.8 | – | –

Row | Compound | Emax (OGA; maximum = Thiamet G 200 uM) [%] | EC50 (OGA; [2]) [nM] | melting point [°C] | Emax [1] [%] | IC50 [1] [nM] | Cellular Emax (%) (OGA; HEK293 cells inducible for P301L mutant human Tau, maximum = Thiamet G 200 uM) | Enzymatic Emax (%) [1] [%]
21 | Cc1cc(OC2CCN(C(C)c3ccc4sc(C)nc4n3)CC2)cc(C(F)(F)F)n1 (stereo not drawn) [Compound 21] | 55 | 813 | – | 101 | 50.1 | – | –
22 | CC(c1ccc2c(n1)OCCO2)N1CCC(Oc2cnc(Cl)nc2)CC1 (stereo not drawn) [Compound 67] | 60 | 631 | – | 102 | 126 | – | –
23 | Cc1cncc(OC2CCN(C(C)c3ccc4c(n3)OCCO4)CC2)c1 (stereo not drawn) [Compound 47] | 67 | 316 | – | 99 | 63.1 | – | –
24 | Cc1cncc(OC2CCN(C(C)c3nc4c(cc3F)OCCO4)CC2)n1 (stereo not drawn) [Compound 109] | 77 | 200 | – | 99 | 12.6 | – | –
25 | Cc1cc(OC2CCN(C(C)c3ccc4c(n3)OCCO4)CC2)cc(C2CC2)n1 (stereo not drawn) (as salt: HCl) [Compound 125] | – | – | 171.4 | – | – | – | –
26 | Cc1cc(OC2CCN(C(C)c3cnc4sc(C)nc4c3)CC2)cc(C)n1 (stereo not drawn) [Compound 40] | 59 | 631 | – | 101 | 126 | – | –
27 | Cc1cc(OC2CCN([C@@H](C)c3ccc4c(n3)OCCO4)CC2)cc(C(F)(F)F)n1 (single isomer, unassigned) [Compound 147] | 81 | 200 | – | 96 | 25.1 | – | –
28 | Cc1cc(COC2CCN(C(C)c3nc4c(cc3F)OCCO4)CC2)cc(C(F)(F)F)n1 (stereo not drawn) [Compound 169] | 87 | 51.3 | – | 96 | 12.6 | – | –
29 | Cc1cc(OC2CCN(C(C)c3nc4nc(C)sc4cc3F)CC2)cc(C)n1 (stereo not drawn) [Compound 32] | 72 | 79.4 | – | 100 | 15.8 | – | –
30 | Cc1ccnc(OC2CCN(C(C)c3ccc4c(n3)OCCO4)CC2)c1 (stereo not drawn) [Compound 44] | 57 | 501 | – | 98 | 200 | – | –
31 | Cc1ccc(OC2CCN(C(C)c3ccc4c(n3)OCCO4)CC2)cn1 (stereo not drawn) (as salt: HCl) [Compound 41] | – | – | 226.7 | – | – | – | –
32 | COc1cc(OC2CCN(C(C)c3ccc4sc(C)nc4n3)CC2)cc(C)n1 (single isomer, unassigned) [Compound 23] | – | > 1000 | – | – | 3980 | −8 | 59
33 | Cc1cc(OC2CCN(C(C)c3nc4c(cc3F)OCCO4)CC2)ccn1 (stereo not drawn) [Compound 162] | 83 | 63.1 | – | 98 | 12.6 | – | –
34 | Cc1cc(C)nc(OC2CCN(C(C)c3ccc4c(n3)OCCO4)CC2)c1 (stereo not drawn) [Compound 71] | 35 | > 1000 | – | 100 | 126 | – | –
35 | CC(c1ccc2c(n1)OCCO2)N1CCC(Oc2cnc(C(F)(F)F)cn2)CC1 (stereo not drawn) [Compound 114] | 31 | > 1000 | – | 97 | 316 | – | –
36 | Cc1cc(OC2CCN([C@@H](C)c3nc4c(cc3F)OCCO4)CC2)cc(C)n1 (single isomer, unassigned) [Compound 149] | -2 | > 1000 | – | 58 | 6310 | – | –
37 | C[C@@H](c1ccc2c(n1)OCCO2)N1CCC(Oc2ccc(C#N)nn2)CC1 [Compound 107] | 51 | 631 | – | 96 | 158 | – | –
38 | CC(c1nc2c(cc1F)OCCO2)N1CCC(Oc2ccc(C(=O)N(C(C)C)C(C)C)nc2)CC1 (stereo not drawn) (as salt: HCl) [Compound 123] | – | – | 139.7 | – | – | – | –
39 | Cc1cc(OC2CCN(C(C)c3ccc4c(n3)OCCO4)CC2)cc(C(C)C)n1 (stereo not drawn) (as salt: HCl) [Compound 130] | – | – | 186.4 | – | – | – | –
